Molecular target: Human VPS34 (Homo sapiens (Human), UniProt Q8NEB9)
Experiment: Human VPS34 enzyme assay (Adapta TR-FRET)
Format: biochemical
Conditions: for inhibition at 1.11 µM: compound concentration 1.11 μM, read-out: Percent Inhibition

Chain of Human VPS34 (Q8NEB9 whole entry): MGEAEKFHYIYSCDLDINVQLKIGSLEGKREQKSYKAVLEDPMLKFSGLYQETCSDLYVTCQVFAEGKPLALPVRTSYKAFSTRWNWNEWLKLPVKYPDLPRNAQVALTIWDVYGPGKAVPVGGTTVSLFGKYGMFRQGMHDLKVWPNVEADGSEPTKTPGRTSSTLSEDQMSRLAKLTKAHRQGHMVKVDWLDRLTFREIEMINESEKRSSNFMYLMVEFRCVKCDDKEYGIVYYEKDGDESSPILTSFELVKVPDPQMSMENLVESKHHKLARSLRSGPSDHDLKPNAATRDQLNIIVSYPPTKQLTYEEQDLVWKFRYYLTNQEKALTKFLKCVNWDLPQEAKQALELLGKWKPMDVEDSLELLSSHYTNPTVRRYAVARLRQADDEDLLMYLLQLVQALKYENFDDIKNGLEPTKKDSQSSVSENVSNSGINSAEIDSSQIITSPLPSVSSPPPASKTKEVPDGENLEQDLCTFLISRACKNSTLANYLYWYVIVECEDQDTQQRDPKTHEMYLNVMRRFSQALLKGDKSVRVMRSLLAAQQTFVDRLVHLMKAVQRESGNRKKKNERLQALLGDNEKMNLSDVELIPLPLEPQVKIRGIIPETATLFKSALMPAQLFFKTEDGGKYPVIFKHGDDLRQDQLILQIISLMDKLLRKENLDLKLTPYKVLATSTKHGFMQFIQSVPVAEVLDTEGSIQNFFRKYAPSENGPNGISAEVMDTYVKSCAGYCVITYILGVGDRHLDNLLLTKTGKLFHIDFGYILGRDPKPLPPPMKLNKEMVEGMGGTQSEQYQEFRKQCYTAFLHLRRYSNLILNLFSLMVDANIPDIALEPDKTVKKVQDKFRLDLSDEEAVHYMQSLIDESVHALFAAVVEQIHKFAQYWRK

SMILES | inhibition at 1.11 µM | IC50 (IC50 range class)
CC(=O)Nc1cc(-c2cnc3[nH]cc(CN(C)C)c3c2)ccn1 [Compound I-85] | 90% | 
CC(=O)Nc1cc(-c2ccc(S(=O)(=O)Nc3cc(-c4ccnc(NC(C)=O)c4)cnc3C)c(F)c2)ccn1 [Compound I-86, N-(4-{4-[(2′-acetamido-6-methyl-3,4′-bipyridin-5-yl)sulfamoyl]-3-fluorophenyl}pyridin-2-yl)acetamide] | > 99% | 
CC(=O)Nc1cc(-c2cnc(N)c(S(=O)(=O)N3CCCC3)c2)ccn1 [Compound I-87, N-[6-amino-5-(pyrrolidin-1-ylsulfonyl)-3,4′-bipyridin-2′-yl]acetamide] | > 99% | 
CC(=O)Nc1cc(-c2cnc(C)c(N3CCCS3(=O)=O)c2)ccn1 [Compound I-88, N-[5-(1,1-dioxidoisothiazolidin-2-yl)-6-methyl-3,4′-bipyridin-2′-yl]acetamide] | > 99% | 
CNS(=O)(=O)c1cc(-c2ccnc(NC(C)=O)c2)cnc1N [Compound I-89, N-[6-amino-5-(methylsulfamoyl)-3,4′-bipyridin-2′-yl]acetamide] | > 99% | 
CC(=O)Nc1cc(-c2cnc(C)c(NS(=O)(=O)c3ccc(C(F)(F)F)cc3)c2)ccn1 [Compound I-90, N-[6-methyl-5-({[4-(trifluoromethyl)phenyl]sulfonyl}amino)-3,4′-bipyridin-2′-yl]acetamide] | > 99% | 
CC(=O)Nc1cc(-c2cnc(N)c(C(=O)Nc3cccnc3)c2)ccn1 [Compound I-91, 2′-acetamido-6-amino-N-(pyridin-3-yl)-3,4′-bipyridine-5-carboxamide] | > 99% | 
CC(=O)Nc1cc(-c2cnc(C)c(NS(=O)(=O)c3nccn3C)c2)ccn1 [Compound I-92, N-(6-methyl-5-{[(1-methyl-1H-imidazol-2-yl)sulfonyl]amino}-3,4′-bipyridin-2′-yl)acetamide] | > 99% | 10 to 50 nM
CC(=O)Nc1cc(-c2cnc3ccn(CC4CC4)c3c2)ccn1 [Compound I-93] | 86% | 
CC(=O)Nc1cc(-c2cnc(C)c(NS(=O)(=O)c3ccc(Cl)cc3F)c2)ccn1 [Compound I-94, N-(5-{[(4-chloro-2-fluorophenyl)sulfonyl]amino}-6-methyl-3,4′-bipyridin-2′-yl)acetamide] | 98% | 
CC(=O)Nc1cc(-c2cnc(N)c(S(C)(=O)=O)c2)ccn1 [Compound I-95, N-[6-amino-5-(methylsulfonyl)-3,4′-bipyridin-2′-yl]acetamide] | > 99% | 
CC(=O)Nc1cc(-c2cnc(C)c(N(C)S(C)(=O)=O)c2)ccn1 [Compound I-96, N-{6-methyl-5-[methyl(methylsulfonyl)amino]-3,4′-bipyridin-2′-yl}acetamide] | > 99% | 
CC(=O)Nc1cc(-c2cnc(N)c(S(=O)(=O)Nc3cccc(Cl)c3)c2)ccn1 [Compound I-97, N-{6-amino-5-[(3-chlorophenyl)sulfamoyl]-3,4′-bipyridin-2′-yl}acetamide] | > 99% | 
CC(=O)Nc1cc(-c2cnc(N)c(S(=O)(=O)Nc3ccc4ccccc4c3)c2)ccn1 [Compound I-98, N-[6-amino-5-(2-naphthylsulfamoyl)-3,4′-bipyridin-2′-yl]acetamide] | > 99% | 
CC(=O)Nc1cc(-c2cnc(N)c(S(=O)(=O)Cc3ccc(Cl)cc3)c2)ccn1 [Compound I-99, N-{6-amino-5-[(4-chlorobenzyl)sulfonyl]-3,4′-bipyridin-2′-yl}acetamide] | > 99% | 
CNc1ncc(-c2ccnc(NC(C)=O)c2)cc1S(=O)(=O)Nc1ccccc1 [Compound I-100, N-[6-(methylamino)-5-(phenylsulfamoyl)-3,4′-bipyridin-2′-yl]acetamide] | > 99% | 
CC(=O)Nc1cc(-c2cnc(N)c(S(=O)(=O)NC3CCCCC3)c2)ccn1 [Compound I-101, N-[6-amino-5-(cyclohexylsulfamoyl)-3,4′-bipyridin-2′-yl]acetamide] | > 99% | 
CC(=O)Nc1cc(-c2cncc(NS(=O)(=O)c3ccc(F)cc3F)c2C)ccn1 [Compound I-102, N-(5-{[(2,4-difluorophenyl)sulfonyl]amino}-4-methyl-3,4′-bipyridin-2′-yl)acetamide] | > 99% | 
CC(=O)Nc1cc(-c2cnc3[nH]cc(S(=O)(=O)N4CCN(C)CC4)c3c2)ccn1 [Compound I-103, N-(4-{3-[(4-methylpiperazin-1-yl)sulfonyl]-1H-pyrrolo[2,3-b]pyridin-5-yl}pyridin-2-yl)acetamide] | > 99% | 
COc1ncc(-c2ccnc(NC(C)=O)c2)cc1NS(=O)(=O)c1ccc(F)cc1F [Compound I-104, N-(5-{[(2,4-difluorophenyl)sulfonyl]amino}-6-methoxy-3,4′-bipyridin-2′-yl)acetamide] | > 99% | 
CC(=O)Nc1cc(-c2cnc3cn(S(=O)(=O)C4CC4)nc3c2)ccn1 [Compound I-105, N-{4-[2-(cyclopropylsulfonyl)-2H-pyrazolo[4,3-b]pyridin-6-yl]pyridin-2-yl}acetamide] | > 99% | 
CC(=O)Nc1cc(-c2cncc(NC(=O)Cc3ccccc3)c2)ccn1 [Compound I-106, N-(2′-acetamido-3,4′-bipyridin-5-yl)-2-phenylacetamide] | 64% | 
COc1ncc(-c2ccnc(NC(C)=O)c2)cc1S(=O)(=O)Nc1ccc(F)cc1F [Compound I-107, N-{5-[(2,4-difluorophenyl)sulfamoyl]-6-methoxy-3,4′-bipyridin-2′-yl}acetamide] | > 99% | 
CC(=O)Nc1cc(-c2cnc(N)c(S(=O)(=O)NCC3CC3)c2)ccn1 [Compound I-108, N-{6-amino-5-[(cyclopropylmethyl)sulfamoyl]-3,4′-bipyridin-2′-yl}acetamide] | > 99% | 
CC(=O)Nc1cc(-c2cnc(C)c(NS(=O)(=O)c3ccccc3Cl)c2)ccn1 [Compound I-109, N-(5-{[(2-chlorophenyl)sulfonyl]amino}-6-methyl-3,4′-bipyridin-2′-yl)acetamide] | > 99% | 

Second part, the compound after the results:

inhibition at 1.11 µM | IC50 (IC50 range class) | SMILES
> 99% |  | CC(=O)Nc1cc(-c2cnc(N)c(S(=O)(=O)N(C)CC3CC3)c2)ccn1 [Compound I-110, N-{6-amino-5-[(cyclopropylmethyl)(methyl)sulfamoyl]-3,4′-bipyridin-2′-yl}acetamide]
> 99% |  | CC(=O)Nc1cc(-c2cnc(C)c(NS(=O)(=O)c3cc(Cl)ccc3Cl)c2)ccn1 [Compound I-111, N-(5-{[(2,5-dichlorophenyl)sulfonyl]amino}-6-methyl-3,4′-bipyridin-2′-yl)acetamide]
> 99% |  | CC(=O)Nc1cc(-c2cnc(N(C)C)c(C(=O)Nc3ccc(F)cc3F)c2)ccn1 [Compound I-112, 2′-acetamido-N-(2,4-difluorophenyl)-6-(dimethylamino)-3,4′-bipyridine-5-carboxamide]
> 99% |  | CC(=O)Nc1cc(-c2cnc(C)c(NS(=O)(=O)c3ccc(OC(F)(F)F)cc3Cl)c2)ccn1 [Compound I-113, N-[5-({[2-chloro-4-(trifluoromethoxy)phenyl]sulfonyl}amino)-6-methyl-3,4′-bipyridin-2′-yl]acetamide]
> 99% |  | CC(=O)Nc1cc(-c2cnc(C)c(NS(=O)(=O)C3CC3)c2)ccn1 [Compound I-114, N-{5-[(cyclopropylsulfonyl)amino]-6-methyl-3,4′-bipyridin-2′-yl}acetamide]
68% |  | CC(=O)Nc1cc(-c2cnc(C)c(NC(=O)c3ccc(F)cc3F)c2)ccn1 [Compound I-115, N-(2′-acetamido-6-methyl-3,4′-bipyridin-5-yl)-2,4-difluorobenzamide]
68% |  | CC(=O)Nc1cc(-c2cnc3cn[nH]c3c2)ccn1 [Compound I-116, N-[4-(1H-pyrazolo[4,3-b]pyridin-6-yl)pyridin-2-yl]acetamide]
> 99% |  | O=C(Nc1cc(-c2cnc3[nH]ncc3c2)ccn1)C1CC1 [Compound I-117, N-[4-(1H-pyrazolo[3,4-b]pyridin-5-yl)pyridin-2-yl]cyclopropanecarboxamide]
> 99% |  | CC(=O)Nc1cc(-c2cncc(S(=O)(=O)N3CCC(F)(F)C3)c2)ccn1 [Compound I-118, N-{5-[(3,3-difluoropyrrolidin-1-yl)sulfonyl]-3,4′-bipyridin-2′-yl}acetamide]
> 99% |  | CC(=O)Nc1cc(-c2cnc(N)c(S(=O)(=O)N(C)C)c2)ccn1 [Compound I-119, N-[6-amino-5-(dimethylsulfamoyl)-3,4′-bipyridin-2′-yl]acetamide]
> 99% |  | CCN(CC)S(=O)(=O)c1cncc(-c2ccnc(NC(C)=O)c2)c1 [Compound I-120, N-[5-(diethylsulfamoyl)-3,4′-bipyridin-2′-yl]acetamide]
> 99% |  | CC(=O)Nc1cc(-c2cnc(N)c(C(=O)Nc3cc(C)cnn3)c2)ccn1 [Compound I-121, 2′-acetamido-6-amino-N-(5-methylpyridazin-3-yl)-3,4′-bipyridine-5-carboxamide]
> 99% |  | CC(=O)Nc1cc(-c2cnc(N)c(S(=O)(=O)O)c2)ccn1 [Compound I-122, 2′-acetamido-6-amino-3,4′-bipyridine-5-sulfonic acid]
> 99% |  | COc1cccc(S(=O)(=O)Nc2cc(-c3ccnc(NC(C)=O)c3)cnc2C)c1 [Compound I-123]
91% |  | CCN(CC)S(=O)(=O)c1cc(-c2ccnc(NC(C)=O)c2)cnc1N [Compound I-124, N-[6-amino-5-(diethylsulfamoyl)-3,4′-bipyridin-2′-yl]acetamide]
> 99% |  | CC(=O)Nc1cc(-c2cnc(N)c(C(=O)N3Cc4ccccc4C3)c2)ccn1 [Compound I-125, N-[6-amino-5-(1,3-dihydro-2H-isoindoI-2-ylcarbonyl)-3,4′-bipyridin-2′-yl]acetamide]
> 99% |  | CC(=O)Nc1cc(-c2cnc(N)c(S(=O)(=O)CCc3ccccc3)c2)ccn1 [Compound I-126, N-{6-amino-5-[(2-phenylethyl)sulfonyl]-3,4′-bipyridin-2′-yl}acetamide]
> 99% |  | COc1ncc(-c2ccnc(NC(C)=O)c2)cc1C(=O)N(C)C [Compound I-127, 2′-acetamido-6-methoxy-N,N-dimethyl-3,4′-bipyridine-5-carboxamide]

Source: patent US9802960B2 (MILLENNIUM PHARMACEUTICALS, INC., priority 2014, dated 2017)
